Laboratory results reported in PubChem BioAssay (NCI).
“And” between values parts separate entries of the source, which are not always exact repeats. Equal values may be shown once.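 Assay format: 96-well plates, 48-hour exposure. Abbreviation: GI50, concentration required for 50% inhibition of growth. The concentration for full growth arrest is given as TGI.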 Where a SMILES comes first, the peptide text is derived from it. The star is where a group is joined. Boc = CC(C)(C)OC(=O)*

Key:
Experiment in all cases: NCI tumour cell line growth inhibition, 48 h
[1] = system: SNB-78 CNS
[2] = system: KM20L2 colon
[3] = system: LXFL 529 NSCLC
[4] = system: HOP-18 NSCLC
[5] = system: DMS 114 small cell lung
[6] = system: DLD-1 colon
[7] = system: RXF-631 renal
[8] = system: MDA-N
[9] = system: DMS 273 small cell lung
[10] = system: P388/ADR leukemia
[11] = system: SN12K1 renal
[12] = system: P388 leukemia

SMILES	TGI [1]	TGI [2]	TGI [3]	TGI [4]	TGI [5]	TGI [6]	TGI [7]	TGI [8]	TGI [9]	TGI [10]	TGI [11]	TGI [12]	GI50 [4]	GI50 [1]	GI50 [8]
C[N+](C)(C)CC1CCC/C1=N\OC(=O)c1ccccc1 (configuration not stated)	> 100 µM	> 100 µM	> 100 µM	> 100 µM	> 100 µM	> 100 µM									
CSc1nc(NC2OC(COC(C)=O)C(OC(C)=O)C(OC(C)=O)C2OC(C)=O)c(N=CC=Nc2c(NC3OC(COC(C)=O)C(OC(C)=O)C(OC(C)=O)C3OC(C)=O)nc(SC)n(C)c2=O)c(=O)n1C (configuration not stated)	> 93.7 µM	> 100 µM	> 100 µM	> 100 µM	> 100 µM	> 100 µM	> 100 µM	> 100 µM	> 100 µM						
CS/C(=C(\S)c1ccccc1)c1ccccc1	> 100 µM	> 31.6 µM	> 100 µM	> 100 µM	> 100 µM	> 100 µM	> 100 µM		> 100 µM						
CC(=O)N1CCC(=O)/C(=C/c2ccccc2)C1	> 100 µM	> 100 µM	47.2 µM	51.2 µM	30.8 µM	66.2 µM	> 100 µM		> 100 µM						
CC1(C)CC(=O)CC(=Nc2ccc([N+](=O)[O-])cc2)C1	> 100 µM	> 100 µM	> 100 µM	> 100 µM	> 100 µM	49.6 µM	> 100 µM		> 100 µM						
C=COC(=O)N[C@H]1CCc2cc(OC)c(OC)c(OC)c2-c2ccc(SC)c(=O)cc21	> 100 µM	< 0.01 µM	> 100 µM	> 100 µM				< 0.01 µM	> 100 µM						
C[C@]12CCC(=O)C=C1CC[C@@H]1C2CC[C@]2(C)Nc3[nH]ncc3CC12 (some centres not stated)	> 100 µM	> 100 µM	> 100 µM		> 100 µM	> 100 µM			> 100 µM						
O=C(CNS(=O)(=O)Cc1ccccc1)NNc1ccccc1								> 100 µM							
Nc1ccn(C2OC(CO)C(O)C2O)c(=O)n1 (configuration not stated)		> 482 µM	> 500 µM	250 µM	417 µM	> 500 µM		> 500 µM	344 µM	1.15 µM	> 500 µM	1.81 µM	77.1 µM		
C/C(=N\NC(=S)N1CCCCCC1)c1ccccn1	13.7 µM		0.19 µM and 0.405 µM	0.927 µM and 6.14 µM	0.138 µM and 0.0298 µM	1.38 µM and 4.44 µM	2.83 µM	1.5 µM	1.69 µM and 2.13 µM				0.72 µM	0.355 µM	0.169 µM
COC(=O)C1=C(C(=O)OC)C2=S(SC3=C2CCCC3)S1 (configuration not stated)		76.5 µM	30 µM			> 100 µM			34.2 µM						
CCN(CC)CCSc1c2ccccc2nc2c(OC)ccc(OC)c12	22.3 µM	> 21.1 µM	> 21.3 µM		3.24 µM		17.9 µM		25 µM						
COC(=O)C(C)NC(=O)C(CCSC)NC(=O)C(Cc1ccccc1)NC(=O)OC(C)(C)C (stereo not drawn) (Boc-Phe-Met-Ala-OMe; configuration not given here)								> 100 µM							48.9 µg/mL
COc1ccc(C2=C(c3ccc(OC)cc3)C(=O)N3CCCC3C2)cc1 (configuration not stated)								> 100 µM							12.2 µM
S=c1[nH]c2c(Cl)c(Cl)c(Cl)c(Cl)c2[nH]1								51.4 µM							
CN(C)c1ncnc2c1ncn2CCn1cnc2c(N(C)C)ncnc21								> 100 µM							
CCc1c(Cl)c(C)cc(O)c1Cl								41.3 µM							
CN(C)CCNC(=O)c1cccc2c(Nc3ccc(S(=O)(=O)N=C(N)N)cc3)c3ccccc3nc12		> 100 µM	> 100 µM		15.1 µM	> 100 µM			24.2 µM						
Cn1c2ccccc2c2ncc3[nH]c4ccccc4c3c21	57.6 µM	36.6 µM	80.1 µM		54.3 µM	> 100 µM	> 100 µM		34.7 µM						

SMILES	TGI [1]	TGI [2]	TGI [3]	TGI [4]	TGI [5]	TGI [6]	TGI [7]	TGI [8]	TGI [9]	TGI [10]	TGI [11]	TGI [12]	GI50 [4]	GI50 [1]	GI50 [8]
COc1ccc2c(c1)c[n+](C)c1c3cc(OC)c(OC)cc3ccc21	22.4 µM	17.8 µM	7.25 µM	29.4 µM	7.14 µM	18 µM		3.08 µM and 8.07 µM	3.54 µM						
CCOC(=O)C1SC(=Nc2ccccc2)N=C1C (configuration not stated)	> 100 µM	> 100 µM	> 100 µM	> 100 µM	> 100 µM	> 100 µM	> 100 µM								
COc1cc2c3c(c1OC)-c1cc4c(cc1CC3(C#N)N(C(=O)c1ccccc1)CC2)OCO4 (configuration not stated)	42.6 µM	> 100 µM	56.3 µM	93.2 µM	> 85.1 µM	> 100 µM		> 100 µM	> 79.4 µM						
O=[N+]([O-])c1ccc(-c2cnc3ccccn23)cc1	> 100 µM	> 100 µM	> 100 µM		> 100 µM				> 100 µM						
O=C1CCC(=O)c2c1c(O)c1ccncc1c2O	38.4 µM	49.8 µM	30.2 µM	60.5 µM	25.4 µM	28.1 µM	54.8 µM		37.7 µM						
CC1(Br)Cc2ccccc2C1=O (configuration not stated)								18.2 µM							4.45 µM
C[Si](C)(C)/C(I)=C/CO	95.3 µM	55.9 µM	> 100 µM	64.1 µM			83.8 µM		48.9 µM						
Cc1ccc(NC(=O)CCc2nnc(N)o2)cc1	> 100 µM	> 100 µM	> 100 µM		> 100 µM	> 100 µM	> 31.6 µM		> 100 µM						
CCOC(=O)c1ccc(N=Nc2cc(C(=O)OCC)ccc2O)cc1		> 100 µM	> 100 µM	> 100 µM	> 100 µM	> 100 µM			> 100 µM						
O=C(O)c1ccc(C(=O)O)c2c(C(=O)O)ccc(C(=O)O)c12								> 100 µM							
CC(C)=CCc1cc2c(cc1O)OC[C@H]1c3cc4c(cc3O[C@@H]21)OCO4								> 100 µM							
C=CCC1(CN(C)C)CC/C(=C\c2ccc(Cl)cc2)C1=O (configuration not stated)	> 72 µM	> 67.4 µM	> 74.8 µM	> 100 µM	> 72.2 µM	> 94.4 µM			> 59.1 µM						
[N-]=[N+]=N/C1=C/CCCCC(=O)C1	> 100 µM	> 100 µM	> 100 µM		> 100 µM	> 100 µM			> 100 µM						
COC(=O)c1s/c(=N\C(=S)N(C)C)n(-c2ccc(Cl)cc2)c1C(=O)OC	> 100 µM	> 100 µM							> 100 µM						
O=c1[nH]c2ccc(O)cc2o1								> 100 µM							
C[Si](C)(C)/C(Br)=C\CCN1C(=O)CCC1=O	> 100 µM	> 100 µM	> 100 µM	> 100 µM	> 100 µM	> 100 µM	> 100 µM		> 100 µM						
CN(C)CCSc1cc(-c2ccccc2)c2ccccc2n1								22.7 µM							
COC12C(COC(N)=O)C3=C(C(=O)C(C)=C(N)C3=O)N1CC1C2N1C (configuration not stated)	51.1 µM	52.3 µM		82.5 µM		57.8 µM		35.3 µM	5.81 µM	263 µM	19.9 µM	75.2 µM			
